Values quoted from earlier work as cited in patent US5500226A, “Pharmaceutical composition having analgesic activity” (Zambon Group S.p.A., priority 1993, dated 1996).

Details: in words; vs Ibuprofen

CC(C)Cc1ccc([C@H](C)C(=O)O)cc1 [(S)-Ibuprofen, S(+)-2-(4-isobutylphenyl)propionic acid]
Analgesic effect: more rapid, and consequently a more lasting, analgesic effect than Ibuprofen
